What was measured:
Assay type in all cases: biochemical
[1] = tested on: human IDE Val360Gln and Tyr314Phe; experiment: Activity assay of mutant human IDE variants Val360Gln and Tyr314Phe with IDE inhibitors
From the text: (§1) N-His6-tagged human IDE42-1019 construct was introduced in the expression plasmid pTrcHis-A (Invitrogen) using primers for uracil-specific excision reactions (USER) by Taq (NEB) and Pfu polymerases (PfuTurbo CX®, Agilent), as described in more detail in Maianti et al. (Nature (2014), 511, 94-98), which is incorporated by reference herein. The IDE gene was amplified with the primers 5′-[…]-dU-[…] (SEQ ID NO: 26) and 5′-[…] G-dU-[…] (SEQ ID NO: 27) (underlined sequences represent overhangs, and italics highlight the PCR priming sequence). Similarly, the pTrcHis-A vector was amplified for USER cloning with the primers 5′-[…]-dU-[…] (SEQ ID NO: 28) and 5′-[…]-dU-[…] (SEQ ID NO: 29). Mutant IDE constructs were generated by amplifying the full vector construct with USER cloning primers introducing a mutant overhang (see Table E6).
(§2) Recombinant His6-tagged proteins were purified by Ni(II)-affinity chromatography (IMAC sepharose beads, GE Healthcare®) according to the manufacturer's instructions. The cell pellets were re-suspended in pH 8.0 buffer containing 50 mM phosphate, 300 mM NaCl, 10 mM imidazole, 1% Triton X-100 and 1 mM tris(2-carboxyethyl)phosphine hydrochloride (TCEP), and were lysed by probe sonication for 4 minutes at <4° C., followed by clearing of cell debris by centrifugation at 10,000 g for 25 minutes at 4° C. […]

[2] = biological target: T1, IDE, substrate amylin (fp) peptide (Homo sapiens, UniProt P14735); experiment: IDE concentration dependence profile with fluorogenic amylin analog; conditions: FIGS. 11B and 11C
T1 sequence (P14735 1-1019): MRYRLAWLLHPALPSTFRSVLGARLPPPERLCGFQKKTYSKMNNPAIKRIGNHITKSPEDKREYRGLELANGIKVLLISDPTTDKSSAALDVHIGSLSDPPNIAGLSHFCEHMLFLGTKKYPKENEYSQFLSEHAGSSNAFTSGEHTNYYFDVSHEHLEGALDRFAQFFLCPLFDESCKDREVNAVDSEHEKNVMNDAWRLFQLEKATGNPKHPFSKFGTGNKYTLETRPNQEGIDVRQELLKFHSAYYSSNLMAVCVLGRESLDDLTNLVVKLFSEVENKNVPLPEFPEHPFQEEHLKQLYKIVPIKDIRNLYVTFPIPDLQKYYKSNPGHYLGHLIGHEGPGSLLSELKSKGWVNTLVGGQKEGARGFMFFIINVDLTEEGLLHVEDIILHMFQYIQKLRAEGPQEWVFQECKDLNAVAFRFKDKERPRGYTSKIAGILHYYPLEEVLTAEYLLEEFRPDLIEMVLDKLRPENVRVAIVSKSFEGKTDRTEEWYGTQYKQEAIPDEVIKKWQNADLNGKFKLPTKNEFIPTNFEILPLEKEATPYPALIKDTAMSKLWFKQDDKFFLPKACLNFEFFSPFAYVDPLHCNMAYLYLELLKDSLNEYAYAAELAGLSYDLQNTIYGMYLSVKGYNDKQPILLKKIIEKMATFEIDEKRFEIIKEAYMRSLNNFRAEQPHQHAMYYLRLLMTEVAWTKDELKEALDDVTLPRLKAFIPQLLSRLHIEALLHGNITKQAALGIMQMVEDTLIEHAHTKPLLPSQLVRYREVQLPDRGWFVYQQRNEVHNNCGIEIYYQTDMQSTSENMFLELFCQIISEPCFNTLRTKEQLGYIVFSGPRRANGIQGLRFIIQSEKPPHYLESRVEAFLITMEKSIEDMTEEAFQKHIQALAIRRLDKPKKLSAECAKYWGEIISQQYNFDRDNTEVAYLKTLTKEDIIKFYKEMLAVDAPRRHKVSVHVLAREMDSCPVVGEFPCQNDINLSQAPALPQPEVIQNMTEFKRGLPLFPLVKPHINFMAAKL
Experimental: In order to determine the behavior of the inhibitors with respect to amylin, a concentration dependence profile was measured for IDE in the presence of a specified concentration of inhibitor and a fluorogenic amylin analog. The amylin (fp) peptide sequence was KCNTATCATXRLANFLVHSSNNZGAILSSTNVGSNTY-NH2 (SEQ ID NO: 8). The residue marked as X is Lys-γN-anthrinilamide, and the residue marked as Z is 3-nitro-Tyr.

[3] = tested on: human IDE Ile362Gln and Gly362Gln; experiment: Activity assay of mutant human IDE variants Ile362Gln and Gly362Gln with IDE inhibitors
From the text: as §1, §2

Cc1cccc(-c2ccc([C@@H]3[C@@H](CO)N4CCCCN(S(=O)(=O)c5ccccc5C)C[C@@H]34)cc2)c1 [compound 297]
effect of variants Val360Gln and Tyr314Phe on potency [1]: minor impacts on potency
selectivity for inhibiting degradation of amylin over glucagon ([2]; amylin (fp) curve compared with HTRF glucagon curve): selectivity for inhibiting degradation of amylin over degradation of glucagon
selectivity for inhibiting degradation of insulin over amylin and glucagon ([2]; amylin (fp) curve compared with HTRF insulin and glucagon curves): selectivity for inhibiting degradation of insulin over degradation of amylin and glucagon
effect of mutations Ile362Gln and Gly362Gln on inhibition potency [3]: reduce the inhibition potency

Source: patent US11040976B2, “Substrate selective inhibitors of insulin-degrading enzyme (IDE) and uses thereof” (President and Fellows of Harvard College, priority 2015, dated 2021)
